9 compounds from patent publication US11716992B2, “5A5B6C tricyclic spirolactone derivative, preparation method therefor and use thereof” (NANKAI UNIVERSITY, priority 2017, dated 2023) can be followed below.

Structures are written as SMILES. Values joined by “and” are separate entries in the source; they are usually repeats but may differ in a detail not shown here. Identical values can stand only once. Like-named read-outs stand apart in the source and are kept apart here.

One data set has as its system Physalospora piricola. Put plainly: Fungicidal activity, fungicide growth rate method, PP. The format is cell-based. As to conditions: 50 μg/mL; for inhibition at 50 µg/mL: read-out: fungicidal activity (growth inhibition rate), PP.
In the next data set the test system is Ostrinia furnacalis. Kind of data set: Insecticidal activity against Ostrinia furnacalis. It counts as in vivo. As to conditions: for pest or weed control at 100 µg/mL: Ostrinia furnacalis, read-out: insecticidal activity, Ostrinia furnacalis.
In data set [1] the test system is Helicoverpa armigera (Hübner). Kind of data set: Insecticidal activity against Helicoverpa armigera (Hübner). The conditions noted are these: for pest or weed control at 100 µg/mL: Helicoverpa armigera, read-out: insecticidal activity, Helicoverpa armigera (Hübner). The format is in vivo.
A further data set concerns wheat Gibberella zeae. Put plainly: microbe, parasite or virus in culture. The format is cell-based. As to conditions: for inhibition at 50 µg/mL: Fusarium graminearum, read-out: fungicidal activity (growth inhibition rate), GZ, 50 μg/mL.
For another data set, the system named is Rhizoctonia cerealis. Kind of data set: Fungicidal activity, fungicide growth rate method, RC. The conditions noted are these: 50 μg/mL; for inhibition at 50 µg/mL: Ceratobasidium cereale, read-out: fungicidal activity (growth inhibition rate), RC. It counts as cell-based.
In the next data set the test system is Pellicularia sasakii. Kind of data set: Fungicidal activity, fungicide growth rate method, PS. It counts as cell-based. As to conditions: 50 μg/mL; for inhibition at 50 µg/mL: read-out: fungicidal activity (growth inhibition rate), PS.
A further data set concerns Cercospora arachidicola. Put plainly: Fungicidal activity, fungicide growth rate method, CA. As to conditions: 50 μg/mL; for inhibition at 50 µg/mL: Mycosphaerella arachidis, read-out: fungicidal activity (growth inhibition rate), CA. The format is cell-based.
The next data set has as its system Alternaria solani. Kind of data set: Fungicidal activity, fungicide growth rate method, AS. It counts as cell-based. The conditions noted are these: 50 μg/mL; for inhibition at 50 µg/mL: Alternaria solani, read-out: fungicidal activity (growth inhibition rate), AS.
The subject of data set [2] is Phytophthora infestans (Mont.) de Bary. Put plainly: microbe, parasite or virus in culture. The format is cell-based. As to conditions: for inhibition at 50 µg/mL: Phytophthora infestans, read-out: fungicidal activity (growth inhibition rate), PI, 50 μg/mL.
Another data set relates to Botrytis cinerea. Put plainly: Fungicidal activity, fungicide growth rate method, BC. It counts as cell-based. The conditions noted are these: 50 μg/mL; for inhibition at 50 µg/mL: Botrytis cinerea, read-out: fungicidal activity (growth inhibition rate), BC.
The subject of the next data set is Tobacco Mosaic Virus. Kind of data set: Anti-TMV inactivation activity on tobacco plants. The format is in vivo. Also on record: concentration or dose not given beside the values. As to conditions: compound mixed with TMV solution 30 minutes, lesions checked three days later.
In data set [3] the test system is Mythimna separate (Walker). Put plainly: Insecticidal activity against Mythimna separate (Walker). As to conditions: for pest or weed control at 100 µg/mL: Mythimna, read-out: insecticidal activity, Mythimna separate (Walker). It counts as in vivo.
Data set [4] relates to Apis mellifera ligustica Spin. As to conditions: for Death number after 24 h / Death number after 48 h: per replicate of 10 bees.
In a further data set the test system is Sclerotinia sclerotiorum. Kind of data set: Fungicidal activity, fungicide growth rate method, SS. It counts as cell-based. As to conditions: 50 μg/mL; for inhibition at 50 µg/mL: Sclerotinia sclerotiorum.
For the next data set, the system named is Caenorhabditis elegans. Kind of data set: Insecticidal activity against Caenorhabditis elegans. It counts as in vivo. As to conditions: Caenorhabditis elegans, read-out: insecticidal activity, Caenorhabditis elegans.

Consider `C=CC[C@@H]1C[C@@]2(OC(C)=O)C[C@@H](CC=C)[C@H]3C[C@H]4O[C@H]4C[C@@]32O1` [Zyj07-67-1], for which the inhibition at 50 µg/mL came out at 31% in the data set on Physalospora piricola; 23% in the data set on wheat Gibberella zeae; 0% with Rhizoctonia cerealis; 18% in the data set with Pellicularia sasakii; 14% with Cercospora arachidicola; 0% in the data set with Alternaria solani. The inhibition at 50 µg/mL in data set [2] is 32%; with Botrytis cinerea, more than 50%. Further, the pest or weed control at 100 µg/mL in the data set on Ostrinia furnacalis (100 μg/mL) is 5%; in data set [1] (100 μg/mL) it was 10%; in data set [3] (100 μg/mL) it was 20%. Besides, the “TMV inactivation (anti-TMV activity)” value in the data set on Tobacco Mosaic Virus came out at 7%.
For `O=C1C[C@@]2(O)CC[C@H]3CC=CC[C@@]32O1` [Zyj07-96], the pest or weed control at 100 µg/mL is 10% in the data set on Ostrinia furnacalis (100 μg/mL), 15% in [1] (100 μg/mL) and more than 30% in data set [3] (100 μg/mL). The inhibition at 50 µg/mL in the data set with wheat Gibberella zeae was more than 50%; in the data set on Pellicularia sasakii it was more than 60%; with Alternaria solani, more than 60%; in the data set on Sclerotinia sclerotiorum, more than 50%; in data set [2], 24%; in the data set with Botrytis cinerea, 25%. In addition, the “Death rate after 48 h (%)” value in [4] (dosage 9.54 μg a.i./bee) and in data set [4] (dosage 15.5 μg a.i./bee) was 0% throughout. Also, the “Death number after 24 h” value in data set [4] (dosage 9.54 μg a.i./bee) and in data set [4] (dosage 15.5 μg a.i./bee) was 0 throughout. Besides, the “Death number after 48 h” value in data set [4] (dosage 9.54 μg a.i./bee) and in data set [4] (dosage 15.5 μg a.i./bee) was 0 in each case. For the same compound, the “TMV inactivation (anti-TMV activity)” value in the data set on Tobacco Mosaic Virus is 23%.
`CC(=O)O[C@@]12C[C@H]3CC=CC[C@@]1(O3)[C@@H]1CC=CC[C@@H]1C2` [Zyj07-41-2]: the inhibition at 50 µg/mL is more than 50% in the data set with Physalospora piricola; 20% in the data set with wheat Gibberella zeae; 41% in the data set with Pellicularia sasakii; more than 50% with Cercospora arachidicola; 14% in the data set on Alternaria solani; 25% in data set [2]. In the data set on Botrytis cinerea, the inhibition at 50 µg/mL was found to be 34%. Also, the pest or weed control at 100 µg/mL in the data set with Ostrinia furnacalis (100 μg/mL) amounted to 0%; in data set [1] (100 μg/mL), 15%; in the data set with Caenorhabditis elegans (100 μg/mL), 12%; in data set [3] (100 μg/mL), 10%. For the same compound, the “Death rate after 48 h (%)” value in data set [4] (dosage 8.70 μg a.i./bee) and in [4] (dosage 13.5 μg a.i./bee) was 0% each time. The “Death number after 24 h” value in data set [4] (dosage 8.70 μg a.i./bee) and in [4] (dosage 13.5 μg a.i./bee) was 0 throughout. Also, the “Death number after 48 h” value in data set [4] (dosage 8.70 μg a.i./bee) and in data set [4] (dosage 13.5 μg a.i./bee) was 0 throughout. Also, in the data set with Tobacco Mosaic Virus, the “TMV inactivation (anti-TMV activity)” value amounted to 18%.
`C=CC[C@@H]1C[C@]2(OC(C)=O)C[C@@H](OC(C)=O)O[C@@]23CC=CC[C@H]13` [Zyj07-37-1]: the inhibition at 50 µg/mL is more than 50% with Physalospora piricola; 0% in the data set on wheat Gibberella zeae; 7% in the data set with Rhizoctonia cerealis; 0% with Pellicularia sasakii; 14% in the data set on Cercospora arachidicola; 14% with Alternaria solani. The figures for the inhibition at 50 µg/mL (in the data set with Sclerotinia sclerotiorum; in data set [2]) were more than 50% and 15%, respectively. Also, the pest or weed control at 100 µg/mL in the data set on Ostrinia furnacalis (100 μg/mL) amounted to 10%; in data set [1] (100 μg/mL) it was 15%; with Caenorhabditis elegans (100 μg/mL) it was 20%; in [3] (100 μg/mL), 20%. Besides, the “Death rate after 48 h (%)” value in data set [4] (dosage 7.55 μg a.i./bee) and in data set [4] (dosage 15.3 μg a.i./bee) was 0% in each case. For the same compound, the “Death number after 24 h” value in [4] (dosage 7.55 μg a.i./bee) and in data set [4] (dosage 15.3 μg a.i./bee) was 0 in each case. Also, the “Death number after 48 h” value in data set [4] (dosage 7.55 μg a.i./bee) and in data set [4] (dosage 15.3 μg a.i./bee) was 0 throughout. Besides, in the data set with Tobacco Mosaic Virus, the “TMV inactivation (anti-TMV activity)” value was determined as 16%.
Turning to `C=CC[Si](C)(C)O[C@@]12CCO[C@@]13CC[C@H]1C[C@H]3[C@H](CC=CC[Si](C)(C)O1)C2` [Zyj07-49], the pest or weed control at 100 µg/mL in the data set with Ostrinia furnacalis stood at 0%; in data set [1], 0%; in the data set with Caenorhabditis elegans, 15%; in [3], 20%. Besides, the inhibition at 50 µg/mL with Pellicularia sasakii is 45%; with Sclerotinia sclerotiorum it was more than 50%; in data set [2], 16%; with Botrytis cinerea it was 34%. The “Death rate after 48 h (%)” value in data set [4] (dosage 6.06 μg a.i./bee) and in [4] (dosage 19.8 μg a.i./bee) was 0% throughout. Also, the “Death number after 24 h” value in [4] (dosage 6.06 μg a.i./bee) and in data set [4] (dosage 19.8 μg a.i./bee) was 0 throughout. Further, the “Death number after 48 h” value in [4] (dosage 6.06 μg a.i./bee) and in data set [4] (dosage 19.8 μg a.i./bee) was 0 each time. Further, the “TMV inactivation (anti-TMV activity)” value in the data set with Tobacco Mosaic Virus amounted to 28%.
Regarding `C=CC[C@@H]1C[C@]2(O)C[C@H](O[C@]34CCO[C@@]35CC=CC[C@H]5[C@H](CC=C)C4)O[C@@]23CC=CC[C@H]13` [Zyj07-30-2], the “fungicidal activity (growth inhibition rate), PP” value with Physalospora piricola amounted to 48%. The “insecticidal activity, Ostrinia furnacalis” value with Ostrinia furnacalis (100 μg/mL) is listed as 0%. Further, the “insecticidal activity, Helicoverpa armigera (Hübner)” value in [1] (100 μg/mL) was found to be 0%. In addition, in the data set with wheat Gibberella zeae (50 μg/mL), the “fungicidal activity (growth inhibition rate), GZ” value was 27%. Moreover, in the data set on Rhizoctonia cerealis, the “fungicidal activity (growth inhibition rate), RC” value is given as 0%. Besides, the “fungicidal activity (growth inhibition rate), PS” value in the data set on Pellicularia sasakii is recorded as 0%. For the same compound, the “fungicidal activity (growth inhibition rate), CA” value with Cercospora arachidicola is reported as 73%. Besides, in the data set on Alternaria solani, the “fungicidal activity (growth inhibition rate), AS” value is reported as 0%. Besides, the “fungicidal activity (growth inhibition rate), SS” value in the data set with Sclerotinia sclerotiorum is 95%. Also, the “fungicidal activity (growth inhibition rate), PI” value in [2] (50 μg/mL) is given as 14%. Also, the “fungicidal activity (growth inhibition rate), BC” value with Botrytis cinerea is given as 34%. In addition, in the data set on Tobacco Mosaic Virus, the “TMV inactivation (anti-TMV activity)” value is reported as 16%. Further, the “insecticidal activity, Mythimna separate (Walker)” value in data set [3] (100 μg/mL) came to 0%.
For the compound `CO[C@@H]1CC(=O)[C@@]2(O)CC=CC[C@H]12` [Zyj06-111-2], the pest or weed control at 100 µg/mL in the data set with Ostrinia furnacalis (100 μg/mL) was 40%; in [1] (100 μg/mL), 50%; in the data set with Caenorhabditis elegans (100 μg/mL), more than 30%. Moreover, the inhibition at 50 µg/mL in the data set with wheat Gibberella zeae was 47%; with Rhizoctonia cerealis, 0%; in the data set on Pellicularia sasakii, 0%; with Cercospora arachidicola, more than 50%; in the data set with Alternaria solani, 14%; in the data set on Sclerotinia sclerotiorum it was 10%. Besides, the figures for the inhibition at 50 µg/mL (in data set [2]; in the data set with Botrytis cinerea) were 31% and 39%, respectively. Also, in the data set with Tobacco Mosaic Virus, the “TMV inactivation (anti-TMV activity)” value is given as 24%.
As for `C=CC[C@@H]1C[C@]2(O)CC(=O)O[C@@]23C[C@H]2O[C@H]2C[C@H]13` [Zyj07-13], the inhibition at 50 µg/mL with Physalospora piricola was 30%; with wheat Gibberella zeae it was 14%; in the data set with Rhizoctonia cerealis, 43%; in the data set on Pellicularia sasakii, 6%; with Cercospora arachidicola, 8%; in the data set on Alternaria solani it was 10%. In addition, the inhibition at 50 µg/mL in [2] is 0%; in the data set on Botrytis cinerea, more than 50%. In addition, the pest or weed control at 100 µg/mL in the data set on Caenorhabditis elegans (100 μg/mL) turned out to be 20%. Also, the “TMV inactivation (anti-TMV activity)” value with Tobacco Mosaic Virus worked out at 11%.
Consider `C=CC[C@@H]1C[C@]2(O)CCO[C@@]23C[C@H](O)CC[C@H]13` [Zyj07-32], for which the pest or weed control at 100 µg/mL was determined as 0% in the data set with Ostrinia furnacalis (100 μg/mL), 0% in data set [1] (100 μg/mL), 20% with Caenorhabditis elegans (100 μg/mL) and 0% in [3] (100 μg/mL). The inhibition at 50 µg/mL in the data set with wheat Gibberella zeae is 33%; with Rhizoctonia cerealis it was 39%; in the data set with Pellicularia sasakii it was 16%; in the data set with Cercospora arachidicola, more than 50%; with Alternaria solani, more than 60%; in data set [2], more than 60%. Besides, the inhibition at 50 µg/mL with Botrytis cinerea came to 23%. The “Death rate after 48 h (%)” value in data set [4] (dosage 2.73 μg a.i./bee) worked out at 10.0%; in [4] (dosage 10.0 μg a.i./bee), 5.0%. In addition, the “Death number after 24 h” value is 0 and 2 in [4] (dosage 2.73 μg a.i./bee); 0 in data set [4] (dosage 10.0 μg a.i./bee). Moreover, the “Death number after 48 h” value in [4] (dosage 2.73 μg a.i./bee) is 0 and 2; in [4] (dosage 10.0 μg a.i./bee) it was 1 and 0. Moreover, the “TMV inactivation (anti-TMV activity)” value with Tobacco Mosaic Virus was determined as 9%.
